We go through two compounds from patent US8097725B2, “Luminescent indicator dye and optical sensor” (Roche Diagnostics Operations, Inc., priority 2004, dated 2012).

For data set [1] the following is noted: immobilized in a hydrogel matrix; FIG. 3 in Werner et al.; cited from earlier work.
A short description of data set [2]: pH titration of luminescence intensity of the optical sensor disc. It counts as physicochemical. As to the method: The indicator layer casting solution was coated onto a polyester foil (Melinex foil, ICI America) and the solvent was evaporated. The final dry thickness of the indicator layer was approximately 10 μm. Then, the overcoat layer casting solution was coated onto the indicator layer and the solvent was evaporated. The final a dry thickness of the overcoat layer was about 5 μm. Then, a small sensor disc (2.5 cm diameter) was punched out and soaked in buffer for at least 17 h for activation.
Aliquots of solutions A and B were mixed in appropriate rations to obtain eleven pH buffer solutions of pH 2.67, 3.66, 5.41, 6.35, 6.74, 7.28, 7.76, 8.29, 8.78, 9.81, 10.79, respectively. The pHs were determined at 37° C. with a standard glass electrode.
The sensor discs thus obtained were used in the measuring set-up represented schematically in FIG. 2. In FIG. 2, the reference character S denotes a portion of the sensor disc. […]
[formula] L denotes luminescence intensity and Lm denotes maximum luminescence intensity. […] (ON intensity=luminescence intensity of the protonated species (i.e., in FIG. 3 the intensity at pHs<5), OFF intensity=intensity of the deprotonated species (i.e., in FIG. 3 the intensity at pHs>10).

SMILES strings stand for the structures.

On to `CC1=CC(C)=[N+]2C1=C(c1ccc(N(C)C)cc1)c1c(C)cc(C)n1[B-]2(F)F` [1,3,5,7-tertramethyl-8-(4-dimethylamino)-4-difluorobora-3a,4a-diaza(s)-indacene], for which the pK in data set [1] is recorded as 3.3.
Turning to `O=C(O)c1ccc(CN2C(=O)c3cccc4c(NCCc5cc(Cl)c(O)c(Cl)c5)ccc(c34)C2=O)cc1` [Dye A41], in data set [2] (ON = protonated species (pH<5), OFF = deprotonated species (pH>10)), the “OFF intensity as percentage of ON intensity” value amounted to 5%. In data set [2] (immobilized on PVP beads dispersed in hydrophilic polymer layer, 37° C., buffers pH 2.67-10.79, least squares fit of intensity vs pH, excitation 480 nm, emission 520 nm cut-off), the pK value is given as 7.25.
